Test results taken from patent US6455589B1, “Primary N-hydroxylamines” (The Regents of the University of California, priority 1999, dated 2002).
“Also recorded” adds a separate entry of the source. Read-outs that look alike come from different tables or passages of the source.

Assays:
Aβ(1-40) = molecular target: T1, Aβ(1-40) (Homo sapiens, UniProt P05067); experiment: Inhibition of Aβ(1-40) beta-pleated sheet formation (Thioflavin T fluorescence); type: biochemical; conditions: compound 10 μM, 12 hours
T1 construct: particularly the aggregated fibrils of synthetic Aβ(1-40)
T1 sequence (P05067 672-711 limits assumed): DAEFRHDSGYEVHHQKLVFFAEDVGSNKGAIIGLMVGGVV
Description: The deposition of amyloid β-peptide (Aβ) is associated with the development of Alzheimer's disease. See, for example, G. G. Glenner et al. (1984) Biochem. Biophys. Res. Commun., 120:885-890; and R. E. Tanzi (1989) Ann. Med., 21:91-94. Accordingly, compounds which effectively disrupt the formation of Aβ(1-40) or Aβ(1-42) beta-pleated sheets are potentially useful for preventing and/or reversing such amyloid deposits. Thioflavin T (ThT) is known to rapidly associate with beta-pleated sheets, particularly the aggregated fibrils of synthetic Aβ(1-40). This association gives rise to a new excitation maximum at 440 nm and to enhanced emission at 490 nm.
The experiments are performed using a CytoFluor II fluorescence plate reader having the following parameters: Filters (Excitation and Emission)=440 nm/20 and 490 nm/40; Gain=75; Cycle to Cycle Time=30 min; Run Time=720 min (24 cycles) or dependent on exp. design; Plate=96 well. […] The fluorescence measurement begins when the Aβ(1-40) is added and continues for a total of 12 hours. The percent inhibition of beta-pleated sheet formation is calculated from the relative fluorescence unit difference between aggregation in the presence and in the absence of the test compounds.

IMR90 cells [1] = experiment: Replicative life span of IMR90 cells (gain in PDLs, delay of senescence); type: cell-based, human; conditions: 25 μM
IMR90 cells [2] = experiment: as above; type: cell-based, human; conditions: for Toxicity to the cells: high concentrations (100 μM); for Gain in PDLs: continuous cultivation, compared to control untreated cells
Experimental: Cultivating IMR90 cells in culture—Normal human […] fibroblasts (IMR90) cells were obtained from the Coriell Institute for Medical Research at a population doubling level (PDL) of 10.85. The PDLs were calculated as log2(D/Do), where D and Do are defined as the density of cells at the time of harvesting and seeding, respectively. Stock cultures were grown in 100 mm Corning tissue culture dishes containing 10 ml of Dulbecco's modified Eagle's medium (DMEM) supplemented with 10% (V/V) fetal bovine serum (Hyclone). Stock cultures were split once a week when near confluence. Cells were harvested by trypsinization for 5 min at 37° C., immediately collected in 5 ml complete DMEM, washed once with 5 ml complete DMEM and incubated for 10-15 min at 37° C. to allow the cells to recover.
To test the effect of hydroxylamines on replicative life span, IMR90 cells were seeded at 0.5×106 per 100 mm dish. N-hydroxylamines (N-t-butyl hydroxylamine, N-benzyl hydroxylamine, N-methyl hydroxyl- amine) were added either individually (final concentration 10 or 100 μM) or in a combination of all three N-hydroxylamines (30 μM each). The cultures were split after 7 days and seeded with fresh medium supplemented with the hydroxylamines described above. In other experiments the medium of the cultures was replaced after 3 days of seeding with fresh medium and with fresh N-hydroxylamines, the split was done as usual after 7 days from seeding. The effect of PBN on life span was tested as in (5).

IMR90 cells [3] = experiment: Steady state level of oxidants in IMR90 cells, DCFH oxidation by FACS; type: cell-based, human; conditions: for DCFH, AFU/PDL (rate of DCFH oxidation per PDL): 100 μM, linear regression 26-50 PDLs; for Percent of decrease in the rate of oxidants formation from control: DCFH oxidation, continuous treatment
Experimental: (§1) Analysis of the age-dependent changes in the steady state level of oxidants and mitochondrial membrane potential in IMR90 cells by FACS—[…] were trypsinized and resuspended into complete DMEM. For each condition, two tubes were prepared with 1×10^6 cells each. Tubes were then spun at 250 g for 10 min at room temperature and supernatant was replaced with 1 ml of Hanks Balanced Salt Solution (HBSS) without Ca^++ or Mg^++. Rho123 (20 μl of 525 μM stock; 10.5 μM final concentration) was added to one tube and DCFH (20 μl of 1.25 mM stock; 25 μM final concentration) was added to the other tube. The cells were then incubated in the dark in a water bath at 37° C. for 30 min followed by cell resuspension and centrifugation at 250 g for 10 min at room temperature. The supernatant (500 μl) was removed from each tube and the cells were resuspended in the remaining 500 μl before FACS analysis on a FACSort analyzer (Becton Dickinson, San Jose, Calif.). Cell Quest was used for data acquisition and analysis. The data is reported as the mean of the channel of the fluorescence histogram obtained. Fluorescence output was calibrated with LinearFlow Green Flow cytometry Intensity Calibration Particles (Molecular Probes, Eugene, Oreg.).

IMR90 cells [4] = experiment: Senescence-dependent change in mitochondria of IMR90 cells, Rho123 accumulation by FACS; type: cell-based, human; conditions: for Rho123, AFU/PDL (rate of Rho123 accumulation per PDL): 100 μM, linear regression 26-50 PDLs; for Decrease of the rate of Rho123 accumulation as a function of senescence: vs control
Experimental: as §1

IMR90 cells [5] = experiment: Cellular levels of GSH and GSSG in IMR90 cells (HPLC-EC); type: cell-based, human; conditions: for GSH / GSH/GSSG / GSSG: 100 μM, 26-50 PDLs; for Increase of the GSH/GSSG ratio: vs control
Experimental: Measurement of cellular levels of GSH and GSSG in IMR90 cells—Cultivated IMR90 cells (≈3×10^6) were washed once in cold PBS and resuspended in 200 μl of ice cold MSA (0.2M MSA/0.5mM diethylenetriamine pentaacetic acid, DTPA) and allowed to stand for 10 min at room temperature. Denatured proteins were removed by centrifugation and the supernatant was filtered with 30,000 D MW cut-off Ultrafree filters (Millipore) before injection. Fifty microliters were injected and separated on an HPLC column (3-μm 0.46×15cm Suplecosil LC18-DB, Supelco, Bellefonte, Pa.) with a flow rate of 1 ml/min using a mobile phase consisting of 25mM NaH2PO4, 5 mM octane sulfonic acid, and 2% acetonitrile, adjusted to pH 2.7 with phosphoric acid (26). An ESA model 5100A Coulochem detector, 5020 guard cell and model 5010 analytical cell combination was used for analysis. Oxidation potentials of 900 mV, 400 mV and 880 mV were used for guard cell, electrode 1 and 2, respectively. Full-scale output was 10 μA and peak areas were compared using commercial GSH and GSSG as standards.

in vivo = conditions: male, C57BL/6J and DBA/2J, mouse, in vivo
Experimental: C57BL/6J and DBA/2J male mice (35-40 g) are tested for the acute lethal effects of adriamycin and the prevention of acute lethality by pretreatment doses of subject hydroxylamines. Mice are injected i.p with either saline or subject hydroxylamines 30 minutes prior to administration of adriamycin.

IMR90 cells [6] = experiment: H2O2-induced senescence of IMR90 cells; type: cell-based, human; conditions: 20 μM or 30 μM H2O2 once a week, cells continuously treated
Experimental: To determine the effect of H2O2 on the replicative life span, cells were first seeded with fresh medium with or without N-hydroxylamines (see above) for a week. Next, cells grown with or without N-hydroxylamines were each split into two additional groups and then either; 1) treated with 20 or 30 μM H2O2 or 2) without treatment with H2O2.

IMR90 cells [7] = experiment: Entry and concentration of N-t-butyl hydroxylamine in cells; type: in vitro ADME, human
[8] = Auto-oxidation in a cell free system; type: physicochemical
cytochrome c = experiment: Auto-oxidation of cyt c^II and direct reduction of cytochrome c by N-hydroxylamines; type: biochemical
Experimental: In order to test the effect of N-hydroxylamines on the spontaneous oxidation of cytochrome c, a complete reduction of cyt c^III was achieved by incubating the X/XO system for 4-5 min at 25° C. Auto-oxidation of cyt c^II is associated with a decrease in absorbance at 550 nm. Reduced cytochrome c was incubated at 25° C. with or without 2 or 3 mM N-hydroxylamines and the auto-oxidation was followed by spectrophotometer. The rate of reduction of cytochrome c by different concentrations of each N-hydroxylamine was measured by the increase in absorbance at 550 nm.

[9] = mice; cited from earlier work

With `ONC1CCCCC1` [Example 3, N-Cyclohexylhydroxylamine] the “Inhibition of Aβ(1-40) beta-pleated sheet formation” value (Aβ(1-40)) was “inhibit”.
For `CC1(C)CC(O)CC(C)(C)N1[O]` [Example 4-OH-TEMPO, 4-hydroxy-2,2,6,6-tetramethylpiperidine-1-oxyl], the “Delay of replicative senescence” value (IMR90 cells [1]) was “did not delay the replicative senescence”, the “Delay of senescence of IMR90 cells (in words)” value (shortened to “Delay … (in words)”) (IMR90 cells [2]) was “none” and the “Toxicity to the cells” value (IMR90 cells [2]) was “toxic”.
In the case of `CNO` [NMHA, N-methyl hydroxylamine], the “DCFH, AFU/PDL (rate of DCFH oxidation per PDL)” value (IMR90 cells [3]) is reported as 0.45 (0.3) AFU/PDL, the “Percent of decrease in the rate of oxidants formation from control” value (from here on “Percent of decrease”) (IMR90 cells [3]) is reported as 79% and the “Delay … (in words)” value (IMR90 cells [2]) is reported as “active; also recorded: able to delay the senescence”. The “Rho123, AFU/PDL (rate of Rho123 accumulation per PDL)” value (IMR90 cells [4]) was 15.3 (0.86) AFU/PDL, the “Decrease of the rate of Rho123 accumulation as a function of senescence” value (from here on “Decrease of the rate … of senescence”) (IMR90 cells [4]) was 52% and the GSH (IMR90 cells [5]) was 52.15 ± 6.7. For the same molecule, the GSH/GSSG (IMR90 cells [5]) was 137.2, the GSSG (IMR90 cells [5]) was 0.38 ± 0.08 and the “Increase of the GSH/GSSG ratio” value (IMR90 cells [5]) was 94%.
For `CC(C)(C)N=O` [tNB, nitroso-tert-butane], the “Effect on IMR90 cells” value (IMR90 cells [2]; 10 μM in medium) was “no effect”.
For `CC(C)(C)ON` [O-t-butyl hydroxylamine], the “Delay … (in words)” value (IMR90 cells [2]) was “accelerate senescence”.
With `COc1cccc2c1C(=O)c1c(O)c3c(c(O)c1C2=O)C[C@@](O)(C(=O)CO)C[C@@H]3O[C@H]1C[C@H](N)[C@H](O)[C@H](C)O1` [adriamycin] the “Acute lethality (dose range)” value (in vivo) was 10 to 30 mg/kg and the LD50 (in vivo) was 25 mg/kg.
With `O=Cc1ccccc1` [benzaldehyde] the “Delay … (in words)” value (IMR90 cells [2]) was “without effect or toxic at high concentrations” and the “Delay … (in words)” value (IMR90 cells [2]; listed as Benzaldehyde) was “without effect and in high concentrations was toxic”.
For `ONCc1ccccc1` [NBHA, N-benzyl hydroxylamine], the “DCFH, AFU/PDL (rate of DCFH oxidation per PDL)” value (IMR90 cells [3]) was 0.11 (0.08) AFU/PDL, the “Percent of decrease” value (IMR90 cells [3]) was 95% and the H2O2-induced senescence (IMR90 cells [6]) was “attenuated”. The “Delay … (in words)” value (IMR90 cells [2]) was “active; also recorded: able to delay the senescence”, the “Rho123, AFU/PDL (rate of Rho123 accumulation per PDL)” value (IMR90 cells [4]) was 9.7 (0.86) AFU/PDL and the “Decrease of the rate … of senescence” value (IMR90 cells [4]) was 69%. It also gave a GSH (IMR90 cells [5]) of 48.4 ± 3.4, a GSH/GSSG (IMR90 cells [5]) of 134.4 and a GSSG (IMR90 cells [5]) of 0.36 ± 0.015. The “Increase of the GSH/GSSG ratio” value (IMR90 cells [5]) was 90.4%.
With `CC(C)(C)NO` [NtBHA, N-t-butyl hydroxylamine] the “DCFH, AFU/PDL (rate of DCFH oxidation per PDL)” value (IMR90 cells [3]) was 0.27 (0.32) AFU/PDL, the “Percent of decrease” value (IMR90 cells [3]) was 88% and the H2O2-induced senescence (IMR90 cells [6]) was “attenuated”. The “Delay … (in words)” value (IMR90 cells [2]) was “delays senescence”, the “Gain in PDLs” value (IMR90 cells [2]; 10 μM) was 5.8 PDLs and the “Gain in PDLs” value (IMR90 cells [2]; 100 μM (added once per 7 days)) was 19.7 PDLs. For the same molecule, the “Concentration required to delay senescence (gain in PDLs), relative to PBN” value (IMR90 cells [2]; vs PBN 200 μM) was 20 times lower, the “Rho123, AFU/PDL (rate of Rho123 accumulation per PDL)” value (IMR90 cells [4]) was 9.3 (0.85) AFU/PDL and the “Decrease of the rate … of senescence” value (IMR90 cells [4]) was 70%. For the same molecule, the “Concentration in the cells” value (IMR90 cells [7]) was “approximately 5 fold”, the “Entry into the cells” value (IMR90 cells [7]) was “rapidly enters the cells” and the GSH (IMR90 cells [5]) was 49.5 ± 5.6. The GSH/GSSG (IMR90 cells [5]) was 123.8, the GSSG (IMR90 cells [5]) was 0.4 ± 0.045 and the “Increase of the GSH/GSSG ratio” value (IMR90 cells [5]) was 75%. For the same molecule, the Stability to auto-oxidation [8] was “stable to auto-oxidation” and the “Direct reduction of cyt c^III to cyt c^II” value (cytochrome c) was “somewhat less efficient”.
In the case of `NO` [HNHOH, hydroxylamine], the Anticancer activity [9] is listed as “possesses anticancer activity” and the Senescence [9] is listed as “delayed senescence”.
For `CC1(C)CCCC(C)(C)N1[O]` [TEMPO, 2,2,6,6-tetramethyl-piperidine-1-oxyl], the “Delay of replicative senescence” value (IMR90 cells [1]) was “did not delay the replicative senescence”, the “Delay … (in words)” value (IMR90 cells [2]) was “none” and the “Toxicity to the cells” value (IMR90 cells [2]) was “toxic”.
With vitamin E the “Delay … (in words)” value (IMR90 cells [2]) was “none”.
With catalase the “Delay … (in words)” value (IMR90 cells [2]) was “none”.
For `O=C1O[C@H]([C@@H](O)CO)C(O)=C1O` [ascorbic acid], the “Delay … (in words)” value (IMR90 cells [2]) was “none”.
For `NOCc1ccccc1` [O-benzyl hydroxylamine], the “Delay … (in words)” value (IMR90 cells [2]) was “accelerate senescence”.
With `CON` [O-methyl hydroxylamine] the “Delay … (in words)” value (IMR90 cells [2]) was “accelerate senescence”.
For `CC(C)NO` [Example 1, N-Isopropylhydroxylamine], the “Inhibition of Aβ(1-40) beta-pleated sheet formation” value (Aβ(1-40)) was “inhibit”.
